Several values for one entry are separate records, joined by “and”; a condition that tells them apart may be missing. Identical values can stand only once. Entries after “also recorded” stand apart in the source; their conditions may differ.
Key:
DmelOrco L141V = DmelOrco L141V (Drosophila melanogaster, UniProt Q9VNB5, L141V); experiment: TEVC recording of VUAA1-induced current, DmelOrco L141V in Xenopus oocytes; assay type: cell-based; conditions: 500 µM VUAA1, TEVC
Description: (§1) All Orco gene sequences were optimized[63] for protein expression in Xenopus laevis oocytes with the GenSmartTM Codon optimization Tool and subcloned into a pGEMHE-derived vector. The wildtype gene of Drosophila melanogaster Orco (DmelOrco) was synthesized by Genscript and subcloned with XmaI/XhoI cloning sites. Site-directed mutagenesis of DmelOrco was done by PCR with the Q5® site directed mutagenesis kit (NEB) using primers optimized with the NEBase Changer online tool and following the supplier’s protocol. After transformation of commercial competent bacteria (XL10 Gold) by standard heat-shock protocol and overnight culture in ampicillin-containing LB plates, positive clones were identified by electrophoretic restriction profile and external sequencing (Genewiz). DNAs of positive clones were amplified with Qiagen MidiPrep Kit and the ORF was fully sequenced. […] DNA and RNA were analyzed by agarose-gel electrophoresis and quantified by spectrophotometry. […]
(§2) Whole cell currents were recorded with the two-electrode voltage-clamp (TEVC) technique with the HiClamp robot (MultiChannel System). […] Data were extracted with M. Vivaudou’s programs[65] and statistically analyzed with Prism 8 (Graphpad). […]
100 by 500 µM of the ligand VUAA1 and measured by TEVC recordings on DmelOrco WT and mutants […]

non-injected oocytes = experiment: TEVC recording, negative control (NC) oocytes, non-injected or water-injected; assay type: cell-based, Xenopus laevis; conditions: Fig.4b; individual oocytes; in µA
Method: (§3) Xenopus laevis oocytes were prepared, as previously described. Briefly, oocytes were defolliculated after surgical retrieval by type 1 A collagenase over 2-3 h under smooth horizontal agitation. They were manually selected and incubated at 19 °C in modified-Barth’s solution (1 mM KCl, 0.82 mM MgSO4, 88 mM NaCl, 2.4 mM NaHCO3, 0.41 mM CaCl2, Ca(NO3)2 0.3 mM, 16 mM HEPES, pH 7.4) supplemented with 100 U mL^−1 of penicillin and streptomycin and 0.1 mg mL^−1 of gentamycin. Each oocyte was micro-injected with the Nanoject instrument (Drummond) with 50 nL of 20 ng of mRNA coding for the Orco of interest. Injected oocytes were incubated individually in 96-well plates for 4 days at 19 °C in the same buffer. Different batches of oocytes have been tested per construct. The results of the mutants of interest have been confirmed by a second set of experiments comparing the amplitudes with WT in the same day and from the same batch of oocytes (Supplementary Fig. 11).
Whole cell currents were recorded with the two-electrode voltage-clamp (TEVC) technique with the HiClamp robot (MultiChannel System). Microelectrodes were filled with 3 M KCl. The high K^+ buffer used for recordings was composed of 91 mM KCl, 1 mM MgCl2, 1.8 mM CaCl2, 5 mM HEPES, pH 7.4. […] Data were extracted with M. Vivaudou’s programs[65] and statistically analyzed with Prism 8 (Graphpad).

AalbOrco = experiment: TEVC recording of VUAA1-induced current, AalbOrco in Xenopus oocytes; assay type: cell-based, Aedes albopictus; conditions: 500 µM VUAA1, TEVC, each value one oocyte, Fig.S1c source data
Description: as §1, §2
37 from different species expressed in Xenopus oocytes and recorded by TEVC. […]

DmelOrco I181W = DmelOrco I181W (Drosophila melanogaster, UniProt Q9VNB5, I181W); experiment: TEVC recording of VUAA1-induced current, DmelOrco I181W in Xenopus oocytes; assay type: cell-based; parameters: VUAA1-induced current, i181W: unit not given here
Description: as §1, with “sequenced. For in vitro transcription, DNAs were linearized with restriction enzyme NotI that cuts a unique site in the 3′ region of the polyA tail.” for “sequenced.”
(§4) Whole cell currents were recorded with the two-electrode voltage-clamp (TEVC) technique with the HiClamp robot (MultiChannel System). […] Data were extracted with M. Vivaudou’s programs[65] and statistically analyzed with Prism 8 (Graphpad).

DmelOrco M210A = DmelOrco M210A (Drosophila melanogaster, UniProt Q9VNB5, M210A); experiment: TEVC recording of VUAA1-induced current, DmelOrco M210A in Xenopus oocytes; assay type: cell-based; conditions: 500 µM VUAA1, TEVC
Description: as §1, with “sequenced. For in vitro transcription, DNAs were linearized with restriction enzyme NotI that cuts a unique site in the 3′ region of the polyA tail.” for “sequenced.”
as §4

AgamOrco/AgamOR65 = conditions: AgamOrco/AgamOR65; ref Tailor et al. 1; cited from earlier work
DmelOrco Y390S = DmelOrco Y390S (Drosophila melanogaster, UniProt Q9VNB5, Y390S); experiment: TEVC recording of VUAA1-induced current, DmelOrco Y390S in Xenopus oocytes; assay type: cell-based; conditions: 500 µM VUAA1, TEVC
Description: as §1, with “sequenced. For in vitro transcription, DNAs were linearized with restriction enzyme NotI that cuts a unique site in the 3′ region of the polyA tail.” for “sequenced.”
as §4

DmelOrco F83A = DmelOrco F83A (Drosophila melanogaster, UniProt Q9VNB5, F83A); experiment: TEVC recording of VUAA1-induced current, DmelOrco F83A in Xenopus oocytes; assay type: cell-based; conditions: 500 µM VUAA1, TEVC
Description: as §1, with “sequenced. For in vitro transcription, DNAs were linearized with restriction enzyme NotI that cuts a unique site in the 3′ region of the polyA tail.” for “sequenced.”
as §4

DmelOrco F83W = DmelOrco F83W (Drosophila melanogaster, UniProt Q9VNB5, F83W); experiment: TEVC recording of VUAA1-induced current, DmelOrco F83W in Xenopus oocytes; assay type: cell-based; conditions: 500 µM VUAA1, TEVC
Description: as §1, with “sequenced. For in vitro transcription, DNAs were linearized with restriction enzyme NotI that cuts a unique site in the 3′ region of the polyA tail.” for “sequenced.”
as §4

DmelOrco I79W = DmelOrco I79W (Drosophila melanogaster, UniProt Q9VNB5, I79W); experiment: TEVC recording of VUAA1-induced current, DmelOrco I79W in Xenopus oocytes; assay type: cell-based; parameters: VUAA1-induced current, i79W: unit not given here; conditions: for VUAA1-induced current, i79W: individual oocytes
Description: All Orco gene sequences were optimized[63] for protein expression in Xenopus laevis oocytes with the GenSmartTM Codon optimization Tool and subcloned into a pGEMHE-derived vector. The wildtype gene of Drosophila melanogaster Orco (DmelOrco) was synthesized by Genscript and subcloned with XmaI/XhoI cloning sites. Site-directed mutagenesis of DmelOrco was done by PCR with the Q5® site directed mutagenesis kit (NEB) using primers optimized with the NEBase Changer online tool and following the supplier’s protocol. After transformation of commercial competent bacteria (XL10 Gold) by standard heat-shock protocol and overnight culture in ampicillin-containing LB plates, positive clones were identified by electrophoretic restriction profile and external sequencing (Genewiz). DNAs of positive clones were amplified with Qiagen MidiPrep Kit and the ORF was fully sequenced. For in vitro transcription, DNAs were linearized with restriction enzyme NotI that cuts a unique site in the 3′ region of the polyA tail. The linearized DNAs were purified by the standard phenol:chloroform extraction method and transcribed into mRNA using the T7 ultra mMessage mMachine kit (Thermo Fisher Scientific). mRNAs were purified with the NucleoSpin RNA plus XS kit (Machery-Nagel). DNA and RNA were analyzed by agarose-gel electrophoresis and quantified by spectrophotometry.
as §3
Whole cell currents were recorded with the two-electrode voltage-clamp (TEVC) technique with the HiClamp robot (MultiChannel System). Microelectrodes were filled with 3 M KCl. The high K^+ buffer used for recordings was composed of 91 mM KCl, 1 mM MgCl2, 1.8 mM CaCl2, 5 mM HEPES, pH 7.4. Membrane voltage was clamped to −50 mV and VUAA1 was applied for 60 s. Data were extracted with M. Vivaudou’s programs[65] and statistically analyzed with Prism 8 (Graphpad).

DmelOrco I181W, sequence (Q9VNB5 whole entry I181W, the tested form may be a part): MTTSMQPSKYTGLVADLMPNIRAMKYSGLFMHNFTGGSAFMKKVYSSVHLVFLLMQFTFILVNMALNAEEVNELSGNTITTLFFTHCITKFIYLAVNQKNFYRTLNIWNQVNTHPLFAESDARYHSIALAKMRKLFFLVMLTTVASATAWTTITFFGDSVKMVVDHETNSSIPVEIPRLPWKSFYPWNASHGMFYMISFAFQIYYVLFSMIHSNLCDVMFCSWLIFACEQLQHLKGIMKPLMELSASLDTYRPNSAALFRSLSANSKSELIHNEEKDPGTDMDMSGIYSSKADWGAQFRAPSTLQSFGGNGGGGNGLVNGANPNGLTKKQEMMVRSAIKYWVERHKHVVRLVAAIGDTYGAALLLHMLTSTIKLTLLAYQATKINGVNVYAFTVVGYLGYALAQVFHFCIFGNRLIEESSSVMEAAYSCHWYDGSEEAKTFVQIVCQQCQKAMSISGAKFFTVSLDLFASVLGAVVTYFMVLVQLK
DmelOrco I79W, sequence (Q9VNB5 whole entry I79W, the tested form may be a part): as the sequence (Q9VNB5 whole entry I181W, the tested form may be a part) above, with I79W, W181I counted along it
DmelOrco F83W, sequence (Q9VNB5 whole entry F83W, the tested form may be a part): as the sequence (Q9VNB5 whole entry I181W, the tested form may be a part) above, with F83W, W181I counted along it
DmelOrco F83A, sequence (Q9VNB5 whole entry F83A, the tested form may be a part): as the sequence (Q9VNB5 whole entry I181W, the tested form may be a part) above, with F83A, W181I counted along it
DmelOrco Y390S, sequence (Q9VNB5 whole entry Y390S, the tested form may be a part): as the sequence (Q9VNB5 whole entry I181W, the tested form may be a part) above, with W181I, Y390S counted along it
DmelOrco L141V, sequence (Q9VNB5 whole entry L141V, the tested form may be a part): as the sequence (Q9VNB5 whole entry I181W, the tested form may be a part) above, with L141V, W181I counted along it
DmelOrco M210A, sequence (Q9VNB5 whole entry M210A, the tested form may be a part): as the sequence (Q9VNB5 whole entry I181W, the tested form may be a part) above, with W181I, M210A counted along it

CCc1ccc(NC(=O)CSc2nnc(-c3cccnc3)n2CC)cc1 [VUAA1, N-(4-ethylphenyl)−2-((4-ethyl-5-(3-pyridinyl)−4H-1,2,4-triazol-3-yl)thio)acetamide]
Response to VUAA1 compared with WT (DmelOrco L141V): did not induce significant change
VUAA1-induced current, NC (non-injected oocytes): 0.05 and 0.03 and 0.3 and 0.19 and 0.39 and 0.02
Current amplitude induced by 500 µM VUAA1 (single recordings) (AalbOrco): 2.82 µA and 1.66 µA
Response to VUAA1 compared with WT (DmelOrco I181W; 500 µM VUAA1, TEVC, I181W): significantly reduced or abolished the activation; also recorded: clear loss of VUAA1 activation
VUAA1-induced current, i181W (DmelOrco I181W; Fig.4b, individual oocytes): 0.52 and 0.99 and 0.9 and 0.42 and 0.27 and 1.33 and 0.95 and 0.29 and 0.18 and 1.75 and 2.06 and 1.1 and 0.66 and 0.22 and 0.14 and 0.54 and 0.08
Current induced by VUAA1 (median) (DmelOrco M210A): 5.72 µA
EC50 (AgamOrco/AgamOR65): 37 µM
Current induced by VUAA1 (median) (DmelOrco Y390S): 2.44 µA
Current induced by VUAA1 (median) (DmelOrco F83A): 2.33 µA
Response to VUAA1 compared with WT (DmelOrco F83W): decreased the response; also recorded: significant decrease in the response
Response to VUAA1 compared with WT (DmelOrco I79W; 500 µM VUAA1, TEVC, I79W): significantly reduced or abolished the activation
VUAA1-induced current, i79W (DmelOrco I79W; Fig.4b): 0.5 and 0.66 and 0.09 and 0.23 and 0.24 and 0.02 and 0.06 and 0.14 and 0.05
VUAA1-induced current, i79W (DmelOrco I79W; Fig.4i dose-response, VUAA1 10 µM (Log(M) -5)): 0.07 (2×) and 0.12 and 0.2 and 0.01 (3×) and 0.02 and 0.41 and 0.18
VUAA1-induced current, i79W (DmelOrco I79W; Fig.4i dose-response, VUAA1 25 µM (Log(M) -4.6)): 0.12 and 0.11 and 0.22 and 0.36 and 0.01 (3×) and 0.03 and 0.6 and 0.26
VUAA1-induced current, i79W (DmelOrco I79W; Fig.4i dose-response, VUAA1 50 µM (Log(M) -4.3)): 0.18 and 0.17 and 0.32 and 0.56 and 0.02 (2×) and 0.03 and 0.05 and 0.68 and 0.28
VUAA1-induced current, i79W (DmelOrco I79W; Fig.4i dose-response, VUAA1 100 µM (Log(M) -4)): 0.23 and 0.22 and 0.41 and 0.7 and 0.02 (2×) and 0.06 and 0.09 and 0.71 and 0.29
VUAA1-induced current, i79W (DmelOrco I79W; Fig.4i dose-response, VUAA1 500 µM (Log(M) -3.3)): 0.29 and 0.28 and 0.52 and 0.84 and 0.02 and 0.07 and 0.12 and 0.82 and 0.03 and 0.25
VUAA1-induced current, i79W (DmelOrco I79W; Fig.4i dose-response, VUAA1 1000 µM (Log(M) -3)): 0.38 and 0.36 and 0.67 and 1.01 and 0.03 and 0.09 and 0.14 and 0.96 and 0.04 and 0.24
Imax (DmelOrco I79W; concentration-effect curve of VUAA1, TEVC, I79W): 0.65 µA

Reference: PMC10713630, “Elucidation of the structural basis for ligand binding and translocation in conserved insect odorant receptor co-receptors” (Nature Communications, 2023)
